These are literature values, as cited in patent publication US5210089A, “D-rhamnono-1,5-lactone” (Monsanto Company, priority 1992, dated 1993).

For this data set, the target named is T1, Lysosomal α-mannosidase (Homo sapiens, UniProt O00754).
T1 sequence (O00754 50-1011): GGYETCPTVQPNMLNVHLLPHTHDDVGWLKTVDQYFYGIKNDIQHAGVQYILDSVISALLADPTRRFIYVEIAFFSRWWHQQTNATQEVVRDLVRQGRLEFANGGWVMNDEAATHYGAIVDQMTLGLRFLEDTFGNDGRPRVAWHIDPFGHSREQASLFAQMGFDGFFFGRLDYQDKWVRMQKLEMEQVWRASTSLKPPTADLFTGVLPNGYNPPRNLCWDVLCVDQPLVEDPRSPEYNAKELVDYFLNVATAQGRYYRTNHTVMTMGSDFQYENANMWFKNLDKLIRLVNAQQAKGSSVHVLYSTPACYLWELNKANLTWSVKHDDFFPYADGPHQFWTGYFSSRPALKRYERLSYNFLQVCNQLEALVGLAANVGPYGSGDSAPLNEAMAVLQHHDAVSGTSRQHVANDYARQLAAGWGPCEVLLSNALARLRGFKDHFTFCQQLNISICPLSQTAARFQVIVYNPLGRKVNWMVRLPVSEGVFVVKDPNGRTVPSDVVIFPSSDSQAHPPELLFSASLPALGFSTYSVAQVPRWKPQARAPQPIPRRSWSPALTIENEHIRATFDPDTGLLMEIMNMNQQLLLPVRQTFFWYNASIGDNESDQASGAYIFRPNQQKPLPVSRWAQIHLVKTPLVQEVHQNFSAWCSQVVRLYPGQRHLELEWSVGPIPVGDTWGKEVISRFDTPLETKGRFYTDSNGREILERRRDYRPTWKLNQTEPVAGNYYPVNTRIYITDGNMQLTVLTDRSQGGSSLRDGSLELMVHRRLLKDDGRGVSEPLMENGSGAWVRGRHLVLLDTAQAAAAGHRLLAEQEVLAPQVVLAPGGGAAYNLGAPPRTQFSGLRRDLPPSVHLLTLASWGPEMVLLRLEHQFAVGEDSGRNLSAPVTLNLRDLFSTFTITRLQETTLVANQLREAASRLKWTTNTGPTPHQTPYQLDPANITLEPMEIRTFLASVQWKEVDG
As to conditions: literature; cited from earlier work.

For `O=C1N[C@H](CO)[C@@H](O)[C@H](O)[C@@H]1O` [Mannono-1,5-lactam (2), D-mannonolactam], the “Inhibition of human lysosomal α-mannosidase (in words)” value is reported as “powerful inhibitor”.
